Results from patent publication US20250041266A1, “S1P MODULATOR IMMEDIATE RELEASE DOSAGE REGIMEN” (Novartis AG, priority 2014, published 2025).

Legend:
[1] = biological target: T1, cloned human S1P1 (Homo sapiens, UniProt P21453); experiment: In-vitro affinity, EC50 for cloned human S1P1; assay type: biochemical
T1 construct: expressed in transfected cells

[2] = biological target: T2, cloned human S1P5 (Homo sapiens, UniProt Q9H228); experiment: In-vitro affinity, EC50 for cloned human S1P5; assay type: biochemical
T2 construct: expressed in transfected cells
T2 sequence (Q9H228 whole entry): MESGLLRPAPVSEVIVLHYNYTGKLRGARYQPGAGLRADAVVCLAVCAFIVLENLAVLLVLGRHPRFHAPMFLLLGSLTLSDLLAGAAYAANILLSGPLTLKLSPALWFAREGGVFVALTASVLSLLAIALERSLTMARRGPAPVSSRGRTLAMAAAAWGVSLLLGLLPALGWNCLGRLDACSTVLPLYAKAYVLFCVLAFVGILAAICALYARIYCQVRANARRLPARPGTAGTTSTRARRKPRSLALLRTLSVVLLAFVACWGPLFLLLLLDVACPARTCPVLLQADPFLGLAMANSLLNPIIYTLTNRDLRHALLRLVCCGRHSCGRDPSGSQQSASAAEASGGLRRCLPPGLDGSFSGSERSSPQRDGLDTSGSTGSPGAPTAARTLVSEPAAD

[3] = biological target: S1P1 (Homo sapiens, UniProt P21453); experiment: EC50 for S1P1; assay type: biochemical; conditions: as quoted in Example 3.1
Sequence of S1P1 (P21453 whole entry, species assumed): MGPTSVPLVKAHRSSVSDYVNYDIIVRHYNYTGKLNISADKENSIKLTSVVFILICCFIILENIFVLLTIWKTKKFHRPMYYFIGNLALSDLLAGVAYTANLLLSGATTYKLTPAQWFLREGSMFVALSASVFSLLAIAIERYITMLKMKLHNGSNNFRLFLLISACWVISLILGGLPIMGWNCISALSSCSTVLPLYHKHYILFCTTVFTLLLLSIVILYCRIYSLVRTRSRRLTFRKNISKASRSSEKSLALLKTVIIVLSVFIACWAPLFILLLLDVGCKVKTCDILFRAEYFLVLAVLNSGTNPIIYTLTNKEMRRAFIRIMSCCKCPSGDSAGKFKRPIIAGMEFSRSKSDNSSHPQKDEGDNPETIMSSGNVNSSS

[4] = biological target: S1P5 (Homo sapiens, UniProt Q9H228); experiment: EC50 for S1P5; assay type: biochemical; conditions: as quoted in Example 3.1
Sequence of S1P5 (Q9H228 whole entry, species assumed): as the sequence (Q9H228 whole entry) above

[5] = test system: PLP139-151 induced experimental autoimmune encephalomyelitis (EAE) in SJL/J mice; experiment: Relapse and progression in PLP139-151 induced EAE; assay type: in vivo; conditions: 3 mg/kg p.o. daily, started three days after first clinical symptoms; FIG. 2
Description: Female SJL/J mice were immunized with 50 μg PLP139-151 in CFA, followed by one injection of 200 ng Pertussis toxin, i.p.. Three days after the first clinical symptoms, the mice were randomized to either vehicle or BAF312 and treated daily with 3 mg/kg BAF312 p.o..

[6] = Clinical study in SPMS: cardiac monitoring at treatment initiation; assay type: in vivo, patients with Secondary Progressive Multiple Sclerosis
Excerpt: This is a randomized, multicenter, double-blind, placebo-controlled parallel-group study in approximately 1530 patients with SPMS. Patients are randomized (2:1) to receive either BAF312 or placebo.
The Double-blind treatment epoch starts at randomization. Patients are randomly assigned to either siponimod or placebo. Randomized patients begin with a six-day dose titration Patients are monitored during the dose titration period. During the dose titration, all patients are expected to complete a study visit on the first day of dosing and on day 7. Patients have a study visit on Day 28 and then continue on a visit schedule every 3 months. The treatment duration for individual patients is variable (likely ranging from approximately 23 to 42 months) based on when the study-stop criteria are met.
All patients start the treatment with a 5-day dose titration pack (0.25 mg, 0.25 mg, 0.5 mg, 0.75 mg, 1.25 mg) continuing to a 2 mg siponimod/placebo dose.
Sitting heart rate and blood pressure should be measured in triplicate before the first dose of BAF312, then hourly for 6 hours thereafter (by the Independent First Dose Administrator). When obtaining the pre-dose heart rate before the first dose, the patient should be allowed to sit and rest for 5 minutes before taking the sitting heart rate. Triplicate repeat sitting heart rate and blood pressure will then be made at 1-2 minute intervals. The sitting heart rate and blood pressure measurements should be taken as a baseline reading for both heart rate and blood pressure (before the first dose of BAF312). For comparison to the post-dose heart rate values, the lowest pre-dose value of heart rate should be used. Patients should receive the first dose of BAF312 before 12:00 PM (noon) in the outpatient setting. • 1. In house (clinical/office/hospital) cardiac monitoring, of at least 6 hours, on Day 1 (treatment initiation): • Heart rate and blood pressure will be monitored in triplicate every hour for 6 hours. • 12-lead ECG will be done before dosing, then at 3 hours post-dose and 6 hours post dose • Patients will only be discharged if they meet the following discharge criteria: • Heart rate must be at least 50 bpm or maximally 10 bpm lower than the baseline value • Heart rate must not be the lowest value measured during the observation period • Patients must have no symptoms related to decreased heart rate • ECG at 6 hours should not show any new significant treatment-emergent ECG abnormalities, other than sinus bradycardia, not observed at the patient's pre-dose ECG. • 2. If the discharge criteria are not met at the 6-hour time point, monitoring beyond 6 hours will be performed until the discharge criteria are met. • 3. Patients experiencing a clinically relevant treatment-related symptomatic event (e.g. chest pain, dizziness, palpitations, syncope, nausea and vomiting, etc) associated with reduction of the heart rate together with ECG changes at any time during the 6 hour monitoring period should be discontinued from treatment. • 4. Patients experiencing a symptomatic event, (e.g. chest pain, dizziness, palpitations, syncope, nausea and vomiting) not associated with reduction of the heart rate and without ECG changes, which occur at any time during the 6-hour monitoring period may be discharged, provided they meet the discharge criteria, but must return on Day 2 for the second dose and will be re-monitored as on Day 1. • 5. Mobile heart rate monitoring with telemetry, or a device with similar (or better) registration capability, will be used for continuous registration of heart rate and cardiac events, minimally 6 h post-dose, for Expanded Cardiac Monitoring patients during their outpatient phase of the BAF312 titration period. If MCT is not possible, Patient will be required to wear a Holter on Screening, Day 1 and Day 4 for 24 hours and for 6 hours on Day 7. The patients who will wear a Holter will need make the study visits to have the Holter machine attached. • 6. On Day 4: • a. […]

[7] = administration of 10 mg of siponimod; cited from earlier work
[8] = blinded data (siponimod or placebo)
[9] = blinded data (siponimod or placebo), AE data for 775 patients

T1 sequence (P21453 whole entry): as the sequence (P21453 whole entry, species assumed) above

| Structure (SMILES) | EC50 [1] [nM] | EC50 [2] [nM] | EC50 [3] [nM] | EC50 [4] [nM] | occurrence of relapses (relapse onset) [5] | occurrence of subsequent progression (EAE score and body weight) [5] | 12-lead ECG: cases of 2nd degree AV block ([6]; blinded data (siponimod or placebo 2:1), 5-day titration then 2 mg, post-dose ECG, 691 patients) | cases of 2.1 or Mobitz II AV blocks or high degree AV blocks [6, 8] | cases of symptomatic 2nd degree AV blocks [6, 8] | symptomatic bradyarrhythmia events [6, 8] | Holter: patients with AV block 2nd degree Mobitz I night-time episode <3 sec ([6]; blinded data (siponimod or placebo), Day 1, expanded monitoring group, 651 patients) [patient] | MCT: patients with AV block 2nd degree Mobitz I ([6]; blinded data (siponimod or placebo), on Days 3 and 4, MCT or Holter post-dose, 651 patients) [patients] | AE AV block 2nd degree [6, 9] | AE bradycardia [6, 9] | AE sinus bradycardia [6, 9] | Cardiac disorders AEs reported [6, 9] | SAE of asymptomatic 2nd degree AV block Mobitz I ([6]; blinded data, patient with pre-existing AV block 1st degree receiving carbamazepine, SAE data for 862 patients) [SAE] | decrease in heart rate [7] |
| --- | --- | --- | --- | --- | --- | --- | --- | --- | --- | --- | --- | --- | --- | --- | --- | --- | --- | --- |
| CCc1cc(/C(C)=N/OCc2ccc(C3CCCCC3)c(I)c2)ccc1CN1CC(C(=O)O)C1 [compound A, (E)-1-(4-(1-(((4-cyclohexyl-3-iodobenzyl)oxy)imino)ethyl)-2-ethylbenzyl)azetidine-3-carboxylic acid] | 2.2 | 1.35 | – | – | – | – | – | – | – | – | – | – | – | – | – | – | – | – |
| CCc1cc(/C(C)=N/OCc2ccc(C3CCCCC3)c(C(F)(F)F)c2)ccc1CN1CC(C(=O)O)C1 [siponimod, 1-{4-[1-((E)-4-cyclohexyl-3-trifluoromethyl-benzyloxyimino)-ethyl]-2-ethyl-benzyl}-azetidine-3-carboxylic acid] | 0.9 | 0.79 | 0.4 | 1 | strongly inhibited | strongly inhibited | no cases | No cases | No cases | No symptomatic bradyarrhythmia events | 1 | 2 | 2 (0.3%) patients (%) | 17 (2.2%) patients (%) | 8 (1.0%) patients (%) | 54 (7%) patients (%) | 1 | approximately 10 beats/min |
